# Measured values as given in patent US20120195911A1, “Method of treatment of cancer patients” (priority 2011, published 2012).
# Assays:
# [1] = test system: EBV-associated nasopharyngeal carcinomas; conditions: nasopharyngeal carcinomas in athymus mice; cited from earlier work
# T4N1M0 cervical cancer = test: Case report: Valacyclovir before radiation therapy for cervical cancer; assay type: in vivo, human; conditions: Patient S.
# Method: (§1) […] CMV was found with the FEM in 80% of lymphocytes before treatment with Valacyclovir. The patient then underwent Valacyclovir therapy. 2 g of medication was administered 4 times a day for 7 days in a row in three courses in intervals of seven days each. Then the patient underwent a standard schedule of radiological treatment. Chemotherapy was not used. […] Laboratory study of the patient's lymphocytes every year found CMV antigens, but only in 20-30% of the cells. The patient underwent two more courses of treatment with Valacyclovir according to the schedule above once per year.
# cytomegalovirus (CMV) = test: CMV antigens in patient's lymphocytes (fluorescing antibody method / indirect immunofluorescence reaction); assay type: in vivo, human
# Method: (§2) […] Before treatment with Acyclovir, the antigen to cytomegalovirus (CMV) was found in 85% of the patient's lymphocytes through the fluorescing antibody method (FAM) and therapy was administered with the use of Valacyclovir. 1 g of medication was given 3 times a day for 7 days in a row in three courses in intervals of seven days each. Then the patient underwent a radical mastectomy. Postoperative chemotherapy was not used. […] CMV antigens were not found in the lymphocytes.
# (§3) […] CMV antigens were found using the FAM in 90% of the lymphocytes before treatment with Valacyclovir. The patient then underwent Valacyclovir therapy. 2 g of medication was administered 4 times a day for 7 days in a row in three courses in intervals of seven days each. Then a subtotal resection was performed on the patient's stomach. Postoperative chemotherapy was not used. […] Laboratory study of the patient's lymphocytes every year found CMV antigens in 10-15% of the cells. At the end of the first and second year, the patient received another course of Valacyclovir.
# as §1
# (§4) […] Valacyclovir was administered as treatment. CMV antigens were found in 95% of the patient's lymphocytes before treatment with Valacyclovir. 2 g of medication was administered orally 4 times a day for 7 days in a row in three courses in intervals of seven days each in parallel with CVPM chemotherapy. Other treatment methods were not used. […] Laboratory study of the patient's lymphocytes every year found CMV antigens in 10-15% of the cells. The patient underwent two more courses of treatment with Valacyclovir in combination with chemotherapy once per year.
# (§5) EBV antigens were found 80% of the lymphocytes and CMV was found in 90% of the lymphocytes using the FAM in before treatment with Valacyclovir. The patient then underwent combination therapy with antiviral drugs: immunoglobulin to treat the EBV at a dosage of 13 ml of a 10% solution immediately (7 ml per injection) intravenously once a week three times; immunoglobulin to treat the CMV at a dosage of 13 ml of a 10% solution immediately (7 ml per injection) intramuscularly once a week three times; two 1 g tablets of Valacyclovir 3 times per day in 3 courses of 7 days each; Laferobion 3 million IU once per day daily for seven days in a row. Then a subtotal resection was performed on the patient's stomach. Postoperative chemotherapy was not used. […] Laboratory study of the patient's lymphocytes every year found CMV and EBV antigens in 10-15% of the cells.
# EBV = EBV antigens in patient's lymphocytes (fluorescing antibody method); assay type: in vivo, human; conditions: Patient (stomach cancer), combination with immunoglobulins and Laferobion; 80% before treatment
# Method: as §5
# [2] = test system: adenocarcinomas with various localizations; test: Comparative study, all cancer patients of the experimental group together; assay type: in vivo, human; conditions: for long-term remission of the illness: fewer than 3 courses of seven days
# Method: All the patients belonged to the second clinical group with stage 3 illness. In the capacity of a control group (Control), the following were used: 10 cervical cancer patients, 12 stomach cancer patients, and 10 mammary gland cancer patients from clinical group 2 with stage 3 illnesses. In the control group the patients were treated without the use of Valacyclovir and Acyclovir. As may be seen in the table, the remission periods due to the use of Valacyclovir (Acyclovir) before standard methods of treatment or in combination with chemotherapy doubled for mammary gland cancer and quintupled for stomach cancer. In the majority of the patients (more than 72%), metastasis was not seen for the entire period of observation (3 years). […] The use of the antiviral drug is not useful for a longer period, as the remission period begins for the patient and the drug is ineffective.
# [3] = test system: T2N1M0 mammary gland cancer; test: Case report: preoperational Valacyclovir in mammary gland cancer; assay type: in vivo, human; conditions: Patient L., 1 g 3 times a day, 7 days, three courses, then radical mastectomy; three-year period
# Method: as §2
# Stomach Cancer = test: Comparative study of treatment with Valacyclovir before standard treatment, stomach cancer patients; assay type: in vivo, human; conditions: Valacyclovir (Acyclovir) before standard treatment or with chemotherapy
# Method: (§6) All the patients belonged to the second clinical group with stage 3 illness. In the capacity of a control group (Control), the following were used: 10 cervical cancer patients, 12 stomach cancer patients, and 10 mammary gland cancer patients from clinical group 2 with stage 3 illnesses. In the control group the patients were treated without the use of Valacyclovir and Acyclovir. As may be seen in the table, the remission periods due to the use of Valacyclovir (Acyclovir) before standard methods of treatment or in combination with chemotherapy doubled for mammary gland cancer and quintupled for stomach cancer. In the majority of the patients (more than 72%), metastasis was not seen for the entire period of observation (3 years).
# T4N1M0 prostate cancer = test: Case report: Valacyclovir with chemotherapy in prostate cancer; assay type: in vivo, human; conditions: Patient D., 2 g orally 4 times a day, 7 days, three courses, in parallel with CVPM chemotherapy; three-year period
# Method: as §4
# T3N1M0 stomach cancer = test: Case reports: preoperative Valacyclovir in stomach cancer; assay type: in vivo, human; conditions: then subtotal resection
# Method: as §3
# EBV antigens were found 80% of the lymphocytes and CMV was found in 90% of the lymphocytes using the FAM in before treatment with Valacyclovir. The patient then underwent combination therapy with antiviral drugs: immunoglobulin to treat the EBV at a dosage of 13 ml of a 10% solution immediately (7 ml per injection) intravenously once a week three times; immunoglobulin to treat the CMV at a dosage of 13 ml of a 10% solution immediately (7 ml per injection) intramuscularly once a week three times; two 1 g tablets of Valacyclovir 3 times per day in 3 courses of 7 days each; Laferobion 3 million IU once per day daily for seven days in a row. Then a subtotal resection was performed on the patient's stomach. Postoperative chemotherapy was not used. […]
# Mammary Gland Cancer = test: Comparative study of treatment with Valacyclovir before standard treatment, mammary gland cancer patients; assay type: in vivo, human; conditions: Valacyclovir (Acyclovir) before standard treatment or with chemotherapy
# Method: as §6
# [4] = test system: neuroblastoma cells infected by HCMV; conditions: long-term cultured HCMV-infected neuroblastoma cells resistant to cysplatin and etoposide; virus reproduction blocked; cited from earlier work
structure (smiles),measurement,setting,value
"Nc1ccn(C[C@@H](CO)OCP(=O)(O)O)c(=O)n1 [Cidofovir, (S)-1-(3-hydroxy-2-phpsphonyl-methoxypropyl) cytosine]",apoptosis in EBV-transformed epithelial cells,[1],causes a quick induction of apoptosis
CC(C)[C@H](N)C(=O)OCCOCn1cnc2c(=O)[nH]c(N)nc21 [Valacyclovir],relapses,"T4N1M0 cervical cancer; 2 g 4 times a day, 7 days, three courses, then radiological treatment, three-year period",No relapses were seen
same,metastasis,T4N1M0 cervical cancer; during the observation time,no metastasis
same,CMV antigens in lymphocytes after treatment,"cytomegalovirus (CMV); Patient (stomach cancer), combination with immunoglobulins and Laferobion, 90% before treatment",10-15%
same,CMV antigens in lymphocytes after treatment,"cytomegalovirus (CMV); Patient B. (stomach cancer), yearly study, 90% of lymphocytes before treatment",10-15%
same,CMV antigens in lymphocytes after treatment,"cytomegalovirus (CMV); Patient D. (prostate cancer), yearly study, 95% of lymphocytes before treatment",10-15%
same,CMV antigens in lymphocytes after treatment,"cytomegalovirus (CMV); Patient L., yearly checkup by IIR, 85% of lymphocytes before treatment",not found
same,CMV antigens in lymphocytes after treatment,"cytomegalovirus (CMV); Patient S. (cervical cancer), yearly study, 80% of lymphocytes before treatment",20-30%
same,EBV antigens in lymphocytes after treatment,EBV,10-15%
same,patients in whom metastasis was not seen for the entire period of observation,"[2]; experimental group, observation 3 years",more than 72%
same,long-term remission of the illness,[2]; less than 1 g 3 times a day perorally,does not provide long-term remission
same,relapses,[3],No relapses were seen
same,change of remission period versus control,Stomach Cancer,quintupled
same,relapses,T4N1M0 prostate cancer,No relapses were seen
same,relapses,"T3N1M0 stomach cancer; Patient B., 2 g 4 times a day, 7 days, three courses, three-year period",No relapses were seen
same,relapses,"T3N1M0 stomach cancer; Patient, Valacyclovir combined with EBV and CMV immunoglobulins and Laferobion, four-year period",No relapses were seen
same,change of remission period versus control,Mammary Gland Cancer,doubled
Nc1nc2c(ncn2COCCO)c(=O)[nH]1 [Acyclovir],long-term remission of the illness,[2]; less than 0.5 g 2 times a day in injected form,does not provide long-term remission
Nc1nc(O)c2ncn(COC(CO)CO)c2n1 [Ganciclovir],sensitivity to the action of antitumor drugs,[4],fully restored
